The values below come from ChEMBL document CHEMBL1177845, “Efficient synthesis and identification of novel propane-1,3-diamino bridged CCR5 antagonists with variation on the basic center carrier” (Eur J Med Chem, 2010).

The structures appear in SMILES notation. Where only a bound is given, the exact number is not on record here.

Assay [1] deals with T1, C-C chemokine receptor type 5 (Homo sapiens, UniProt P51681). Nature of the assay: Antagonist activity at CCR5 expressed in CHO cells assessed as inhibition of RANTES-stimulated GTPgammaS binding by scintillation proximity assay. In kind it is functional, cell-based.
Target sequence in this assay (P51681 whole entry): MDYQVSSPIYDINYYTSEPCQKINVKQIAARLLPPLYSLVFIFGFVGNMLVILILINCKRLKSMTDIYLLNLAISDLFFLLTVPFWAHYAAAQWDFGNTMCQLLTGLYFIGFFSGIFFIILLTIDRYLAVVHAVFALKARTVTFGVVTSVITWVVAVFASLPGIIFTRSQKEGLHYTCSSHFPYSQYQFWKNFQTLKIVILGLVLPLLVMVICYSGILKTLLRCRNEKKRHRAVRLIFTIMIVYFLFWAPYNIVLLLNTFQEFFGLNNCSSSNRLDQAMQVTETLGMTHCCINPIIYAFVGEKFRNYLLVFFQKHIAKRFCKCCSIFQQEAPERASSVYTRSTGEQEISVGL
For assay [2], the target named is T1, C-C chemokine receptor type 5. The assay is described as follows: Antagonist activity at CCR5 expressed in CHO cells assessed as inhibition of RANTES-stimulated GTPgammaS binding at 30 nM by scintillation proximity assay.
Target sequence in this assay (P51681 whole entry, looked up): as the sequence (P51681 whole entry) above
The target is the same in assay [3]. The assay is described as follows: Antagonist activity at CCR5 expressed in CHO cells assessed as inhibition of RANTES-stimulated GTPgammaS binding at 300 nM by scintillation proximity assay. (Binding of GTPγS marks nucleotide exchange on a G protein.)
Target sequence in this assay (P51681 whole entry, looked up): as the sequence (P51681 whole entry) above

With `COC(=O)C1(Cc2ccccc2)CCN(CC[C@H](NC(=O)C2CCC2)c2cccc3ccccc23)CC1`, the IC50 in assay [1] was more than 10 µM.
Consider `CC1(NC(=O)c2ccc(C(F)(F)F)cc2)CCN(CC[C@H](NC(=O)C2CCCCC2)c2cccc(F)c2)CC1`, for which the inhibition in assay [2] is 3%; in assay [3], 7%.
For the compound `COc1ccc(C(=O)NC2(C)CCN(CC[C@H](NC(=O)C3CCCCC3)c3cccc(F)c3)CC2)cc1`, the inhibition in assay [2] is 9%; in assay [3], 33%.
With `Cc1nc2cccnc2n1[C@H]1C[C@H]2CC[C@@H](C1)N2CC[C@H](NC(=O)c1ccc(F)cc1)c1cccc2ccccc12`, in assay [1], the IC50 was determined as 10 µM.
Turning to `Cc1nnc(C(C)C)n1[C@H]1C[C@H]2CC[C@@H](C1)N2CC[C@H](NC(=O)COc1ccccc1)c1ccc(C(F)(F)F)cc1`, the 50% inhibitory concentration (IC50) in assay [1] was determined as 0.253 µM.
For `CC(C)N(Cc1ccccc1)c1ccc(N2CCN(CC[C@H](NC(=O)C3CCCCC3)c3ccc(C(F)(F)F)cc3)CC2)cc1`, in assay [1], the IC50 was more than 10 µM.
Regarding `CC1(NC(=O)Cc2ccc(Cl)cc2)CCN(CC[C@H](NC(=O)C2CCCCC2)c2cccc(F)c2)CC1`, the inhibition was determined as 28% in assay [2] and 91% in assay [3].
Regarding `CC(=O)N(c1ccc(N2CCN(CC[C@H](NC(=O)C3CCCCC3)c3ccc(C(F)(F)F)cc3)CC2)cc1)C(C)C`, the IC50 in assay [1] was more than 10 µM.
`CC1(NC(=O)CC23CC4CC(CC(C4)C2)C3)CCN(CC[C@H](NC(=O)C2CCCCC2)c2cccc(F)c2)CC1`: the inhibition in assay [2] came to 21%; in assay [3] it was 46%.
As for `O=C(N[C@@H](CCN1CCC(CO)(Cc2ccccc2)CC1)c1ccc(C(F)(F)F)cc1)C1CCC1`, the IC50 in assay [1] was more than 10 µM.
Take `CC1(NC(=O)C2CCCCC2)CCN(CC[C@H](NC(=O)C2CCCCC2)c2cccc(F)c2)CC1`: the inhibition in assay [2] worked out at 6%; in assay [3] it was 29%.
With `COC(=O)C1(Cc2ccccc2)CCN(CC[C@H](NC(=O)C2CCC2)c2ccc(C(F)(F)F)cc2)CC1`, in assay [1], the IC50 stood at 10 µM.
`CC1(NC(=O)Cc2ccc(F)cc2)CCN(CC[C@H](NC(=O)C2CCCCC2)c2cccc(F)c2)CC1`: the inhibition stood at 31% in assay [2] and 95% in assay [3].
On to `CC1(NC(=O)c2cccnc2)CCN(CC[C@H](NC(=O)C2CCCCC2)c2cccc(F)c2)CC1`, for which the inhibition in assay [2] was found to be 35%; in assay [3], 44%.
The corresponding values for `CC1(NC(=O)Cc2ccc(Cl)c(Cl)c2)CCN(CC[C@H](NC(=O)C2CCCCC2)c2cccc(F)c2)CC1` are 36% and 97%.

In general, IC50 refers to the point on the concentration scale where inhibition reaches its midpoint. As usually defined, the inhibition is the relative decrease from the control value, in per cent.
